Patent publication US8563522B2, “Method of maintaining and/or attenuating a decline in quality of life” (The IAMS Company, priority 1997, dated 2013)
One block for each molecule: values may come before it.

Columns and labels:
hexokinase = conditions: cited from earlier work
isolated rat hepatocytes = conditions: cited from earlier work
glucose metabolism = conditions: rodents, long-term, lower dose; cited from earlier work
[1] = tested on: utilization of glucose as an energy source; conditions: cited from earlier work
[2] = injected into a rat; cited from earlier work
[3] = Mice fed a composition containing mannoheptulose; assay type: in vivo
[4] = Pharmacokinetics, once daily mannoheptulose in composition fed to adult Labrador Retrievers; assay type: in vivo, Labrador Retriever dogs
Protocol: The pharmacokinetics of mannoheptulose can be determined in six adult, male Labrador Retriever dogs fed a nutritionally-balanced composition providing mannoheptulose at levels of 0, 1 or 2 mg/kg of body weight of the dog. Mannoheptulose is provided as an enriched source of avocado extract in the 1 and 2 mg/kg diets. The mean age of the dogs is 4.2 years and the age ranges from 3.3 to 6.1 years. The average body weight of all dogs is 33 kg and the body weight ranges from 28 to 36 kg. Dogs are adapted for 14 days to a nutritionally-balanced control composition (Eukanuba Senior Maintenance Formula) containing no mannoheptulose, avocado extract or avocado meal (0 mg/kg mannoheptulose). The two compositions containing mannoheptulose are the nutritionally-balanced control composition formulated with avocado extract to provide a mannoheptulose dose of 1 or 2 mg/kg of body weight when fed to a dog. […] Pharmacokinetics of mannoheptulose following once daily administration of mannoheptulose in a nutritionally-balanced composition is determined by collecting serial blood samples (3 mL) from each dog on day 9 using a Vacutainer blood collection system and jugular venipuncture. […] Plasma mannoheptulose concentrations are measured using high-performance liquid chromatography tandem mass spectrometry as described herein below.
A one-compartment model is used to calculate mannoheptulose pharmacokinetics based on plasma mannoheptulose levels following once daily oral administration of mannoheptulose in a nutritionally-balanced composition (PV(t)). […] Area under each plasma mannoheptulose curve is determined using a one-way, repeated measures analysis of variance (GraphPad Prism version 4.00 for Windows).
High performance liquid chromatography tandem mass spectrometry (HPLC/MS/MS) is utilized to determine the amount of mannoheptulose present in the plasma of adult dogs. […] Detection and quantitation is by mass spectrometry (MS) operating under multiple reaction monitoring MS/MS conditions. Concentrations of D-mannoheptulose in dog plasma can be quantitated from approximately 20 to 5000 ng/mL. […]

[5] = Pharmacokinetics, twice daily mannoheptulose in composition fed to older Labrador Retrievers; assay type: in vivo, Labrador Retriever dogs
Protocol: The pharmacokinetics of mannoheptulose can be determined in ten adult, female Labrador Retriever dogs fed a nutritionally-balanced composition providing mannoheptulose at levels of 0 or 2 mg/kg of body weight of the dog. Mannoheptulose is provided as avocado extract in the 2 mg/kg diet. The mean age of the dogs is 7.1 years and the age ranges from 5.3 to 8.4 years. Dogs are age-matched across the two composition groups. The average body weight of all dogs is 29 kg and ranges from 25 to 35 kg. The 0 mg/kg composition is fed as a nutritionally-balanced control composition (Eukanuba Senior Maintenance Formula) and it contains no mannoheptulose, avocado extract or avocado meal. The 2 mg/kg composition is the nutritionally-balanced control composition formulated to contain avocado extract to provide mannoheptulose at a dose of 2 mg/kg of body weight of the dog. The amount of composition offered to the dogs is based on feeding guidelines for the control composition and the target weight range and body condition of the dogs. Dogs are fed one-half their daily allotment of composition at 0730 and the remaining half at 1330. Dogs 1, 2, 3, 4 and 5 are fed the composition containing 2 mg/kg mannoheptulose and dogs 6, 7, 8, 9 and 10 are fed the composition containing 0 mg/kg mannoheptulose. Pharmacokinetics of mannoheptulose following twice daily administration of mannoheptulose in a nutritionally-balanced composition is determined by collecting serial blood samples (3 mL) from each dog using a Vacutainer blood collection system and jugular venipuncture. […] Plasma mannoheptulose concentrations are measured using high-performance liquid chromatography tandem mass spectrometry as described herein below.
A one-compartment model is used to calculate mannoheptulose pharmacokinetics based on plasma mannoheptulose levels following twice daily oral administration of mannoheptulose in a nutritionally-balanced composition (PV(t)). The model is: PV(t)=dose/(a·BW)e^−kt where: a=mannoheptulose pool size (dose/(enrichment at t0)), BW=body weight, k=rate constant of elimination (ln Et−ln E0)/−t, and t=time.
High performance liquid chromatography tandem mass spectrometry (HPLC/MS/MS) is utilized to determine the amount of mannoheptulose present in the plasma of adult dogs. […] Detection and quantitation is by mass spectrometry (MS) operating under multiple reaction monitoring MS/MS conditions. Concentrations of D-mannoheptulose in dog plasma can be quantitated from approximately 20 to 5000 ng/mL. […] Specimen concentrations are determined by back-calculation using a weighted (1/x^2) linear regression of a calibration curve generated from prepared D-mannoheptulose calibration standards. […]

[6] = doses of 10 grams, humans, orally; cited from earlier work
[7] = injected, rats, cited from earlier work

Compound: O=P(O)(O)OC[C@H]1OC[C@H](O)[C@@H](O)[C@@H]1O [1,5-anhydro-D-glucitol-6-phosphate]
- inhibition of hexokinase (hexokinase): allosteric (non-competitive) inhibitor

Compound: OC[C@H]1O[C@H](CO)[C@@H](O)[C@@H]1O [2,5-Anhydro-D-mannitol, 2,5-anhydro-D-mannitol]
- effect on glucose formation and utilization (isolated rat hepatocytes): interfere in glucose formation and utilization

Compound: O=CC[C@@H](O)[C@H](O)[C@H](O)CO [2-deoxy-D-glucose]
- metabolic hallmarks of caloric restriction (glucose metabolism): reduced body temperature, weight loss, and lower fasting insulin levels

Compound: CO[C@@H]([C@H](O)[C@H](O)CO)[C@@H](O)C=O [3-O-methylglucose]
- responses relative to 2-deoxyglucose ([1]; administration in rats): about seven times weaker
- metabolism ([1]; in contrast with 2-deoxy-D-glucose): not metabolized

Compound: O=C[C@H](O)[C@@H](O)[C@H](O)[C@H](S)CO [5-Thioglucose, 5-thio-D-glucose]
- injected 5-thioglucose excreted unchanged in urine [2]: 97%

- plasma level response to dietary mannoheptulose level ([4]; 0, 1, 2 mg/kg): dose-dependent
- time of return of plasma mannoheptulose to non-detectable levels ([4]; after consumption of the single daily meal): ≤ 24 h
- plasma kinetics order ([4]; once daily oral, 1 or 2 mg/kg): first order kinetics
- time to second peak in plasma mannoheptulose ([5]; after feeding the afternoon meal, 2 mg/kg in two equal meals): 4 h
- time to peak plasma mannoheptulose level ([5]; after initial (morning) feeding, 2 mg/kg in two equal meals): 4 h
- plasma kinetics order ([5]; twice daily oral, 2 mg/kg): first order kinetics
- half-life ([5]; twice daily, 2 mg/kg, after the afternoon meal): 5.63 h
Compound: O=C(CO)[C@@H](O)[C@@H](O)[C@H](O)[C@H](O)CO [mannoheptulose]
- body weight [3]: slightly reduced body weight
- plasma insulin levels [3]: reduced plasma insulin levels
- safety of oral dosing [6]: safely administered
- remained in the body ([7]; a day after the injection): 5%
- excreted unchanged [7]: 66%
- metabolized [7]: 29%
